Measurements as given in ChEMBL document CHEMBL3576827, “New anti-inflammatory tocopherol-derived metabolites from the Taiwanese soft coral Cladiella hirsuta” (Bioorg Med Chem Lett, 2015).

Experiments:
Conditions in all cases: Neutrophil
[1] = (§1) Antiinflammatory activity in human neutrophils assessed as inhibition of fMLP/CB-induced superoxide anion generation by measuring superoxide dismutase-inhibitable reduction of ferricytochrome c at 10 uM preincubated for 5 mins followed by fMLP/CB-induction measured after 10 mins by spectrophotometric analysis; type: functional
[2] = Antiinflammatory activity in human neutrophils assessed as inhibition of fMLP/CB-induced elastase release using MeO-Suc-Ala-Ala-Pro-Val-p-nitroanilide as elastase substrate preincubated for 5 mins followed by fMLP/CB-induction by spectroscopic analysis; type: functional, cell-based
[3] = as §1, with “c” for “c at 10 uM”; type: functional, cell-based
[4] = Antiinflammatory activity in human neutrophils assessed as inhibition of fMLP/CB-induced elastase release using MeO-Suc-Ala-Ala-Pro-Val-p-nitroanilide as elastase substrate at 10 uM preincubated for 5 mins followed by fMLP/CB-induction by spectroscopic analysis; type: functional

Row | IC50 [2] | IC50 [3] | Compound | inhibition at 10 µM [1] [%] | inhibition at 10 µM [4] [%]
1 | 3.7 µM | 4.1 µM | COC(=O)C(C)CCC[C@]1(C)CC[C@]2(O1)C(=O)C(C)=C(C)[C@@]2(O)C(C)=O (stereo not given in full) | 78.3 | 89.5
2 | 1.2 µg/mL | 0.6 µg/mL | O=c1cc(N2CCOCC2)oc2c(-c3ccccc3)cccc12 [LY-294002] | – | –
3 | > 10 µM | > 10 µM | COC(=O)C(C)CCCC(C)(O)CCC1=C(C)C(=O)C2(C)OC2(C)C1=O (stereo not given) | 8.5 | 21.2
